We go through 44 compounds from US8058243B2, “Method for treating a brain cancer with ifenprodil” (HSC Research and Development Limited Partnership, priority 2006, dated 2011).

This assay deals with murine neural precursor cells (neurosphere cultures). Kind of assay: HTS of LOPAC library against secondary neurosphere cultures, MTT proliferation assay at 3 μM, day 7 (z score, P value). It is filed as cell-based, mouse.
The mark [1] stands for this setting: LOPAC library screen, 3 μM, MTT, neurosphere cultures.
Setting [2] is: LOPAC screen, neurosphere MTT proliferation, 3 μM, day 7.
[3] abbreviates: yes/no: significantly inhibited neurosphere proliferation (P<0.01) in primary screen.
[4] abbreviates: primary LOPAC screen, 3 μM, MTT, neurosphere proliferation.
[5] abbreviates: yes/no: significantly inhibited neurosphere proliferation in the primary screen.
[6] abbreviates: LOPAC primary screen, neurosphere MTT proliferation, 3 μM, day 7.
Where [7] appears, read: yes = significantly inhibited neurosphere proliferation (P<0.01) in the primary screen.
[8] abbreviates: LOPAC library screen, 3 μM, MTT, secondary neurosphere cultures, day 7.
[9] abbreviates: yes/no: significantly inhibited neurosphere proliferation (P<0.01) in the primary screen.
[10] abbreviates: LOPAC library screen at 3 μM, secondary neurosphere cultures, MTT.
Setting [11] is: yes/no: significantly inhibited neurosphere proliferation in primary screen.

Structures can show the parent of a compound that is named as a salt. Where two headings read alike, the source gives them in different places.

On to `O=C(O)c1cc2cc(F)ccc2[nH]1` [5-Fluoroindole-2-carboxylic acid], for which the “Z Score” value is on record as −0.007549 and the Z score was −0.008.
For the compound `CCn1cc(C(=O)O)c(=O)c2ccc(Cc3ccccc3)nc21` [Amfonelic acid], the “Z Score” value under setting [1] came to 0.488. Further, the Z score under setting [2] is 0.488. Further, the Activity result under setting [3] is on record as “no”.
As for `C[C@]12CCC(=O)C(O)=C1CC[C@@H]1[C@@H]2CC[C@]2(C)C(=O)CC[C@@H]12` [4-Androsten-4-ol-3,17-dione], the “Z Score” value was determined as 0.1944. This compound also returned a Z score under setting [4] of 0.194. Also, the Activity entry under setting [5] is “no”.
Consider `S=C=Nc1ccc2oc(C3=NCCN3)cc2c1` [BU99006], for which the “Z Score” value was 1.182. Moreover, the Z score under setting [6] is on record as 1.182. In addition, under setting [3], the Activity result is “no”.
On to `CN(C)[C@@H]1C(O)=C(C(N)=O)C(=O)[C@@]2(O)C(O)=C3C(=O)c4c(O)ccc(Cl)c4[C@@H](O)[C@H]3C[C@@H]12` [Demeclocycline hydrochloride], for which the “Z Score” value under setting [1] is given as −0.06452. Under setting [2], this compound registered a Z score of −0.065. Besides, under setting [3], the Activity result was “no”.
For the compound `Cl.O=C(O)C1=CCCN(CCON=C(c2ccccc2)c2ccccc2)C1` [NO-711 hydrochloride], the “Z Score” value is given as −0.4618. The Z score under setting [6] is −0.462. Besides, the Activity entry under setting [7] is listed as “no”.
In the case of `Cl.O[Si](CCCN1CCCCC1)(c1ccc(F)cc1)C1CCCCC1` (centres unmarked), the “Z Score” value under setting [8] was −1.492. This compound also showed a Z score under setting [6] of −1.492. Moreover, the Activity result under setting [3] was “no”.
Consider `CC(C)C[C@H](NC(=O)[C@@H](O)[C@H](N)Cc1ccccc1)C(=O)O` [Bestatin hydrochloride], for which the “Z Score” value under setting [1] was 0.6432. Under setting [2], this compound returned a Z score of 0.643. The Activity result under setting [3] is “no”.
In the case of Vinblastine sulfate salt, the “Z Score” value is −9.396. The compound further yielded a Z score under setting [6] of −9.396. Besides, the Activity result under setting [9] is “yes”.
For `CN(C)CCOC(c1ccccc1)c1ccccc1` [Diphenhydramine hydrochloride], the “Z Score” value under setting [1] worked out at 0.8449. The Z score under setting [6] stood at 0.845. The Activity entry under setting [9] is on record as “no”.
Consider `CC(C)C[C@H](NC(=O)[C@H](O)[C@H](N)Cc1ccccc1)C(=O)O` [Epibestatin hydrochloride], for which the “Z Score” value under setting [10] is −0.7869. Also, under setting [2], the Z score is listed as −0.787. Also, the Activity result under setting [3] is “no”.
For the compound `CC1CN(S(=O)(=O)c2cccc3cnccc23)CCN1.Cl.Cl` (centres unmarked) [1-(5-Isoquinolinylsulfonyl)-3-methylpiperazine dihydrochloride], for the setting “168 h, 3 µM”, the “Z Score” value stood at 0.4769 and the Z score was found to be 0.477. Besides, the Activity result under setting [3] was “no”.
`C=CC(N)CCC(=O)O` (centres unmarked) [(B1)-gamma-Vinyl GABA]: the “Z Score” value is −0.701.
Regarding `C[C@]12CCC(=O)C=C1CC[C@@H]1[C@@H]2CC[C@@]2(C)[C@H]1CC[C@]2(O)C(=O)CO` [Cortexolone], the “Z Score” value under setting [10] was −0.6087. For the same compound, under setting [6], the Z score is listed as −0.609. Moreover, under setting [11], the Activity entry is listed as “no”.
As for NCS-356, the “Z Score” value stood at 2.833. The same compound displayed a Z score under setting [6] of 2.833. Also, the Activity entry under setting [7] is on record as “no”.
Consider `COc1ccc2[nH]cc(CCNC(C)=O)c2c1` [Melatonin], for which the “Z Score” value under setting [10] is −0.2407. Besides, the Z score under setting [6] is recorded as −0.241. Moreover, the Activity result under setting [7] is recorded as “no”.
For the setting “168 h, 3 µM”, `O=C1c2c(O)cc(O)cc2O[C@H](c2ccc(O)c(O)c2)[C@H]1O` (racemic) [(±)-Taxifolin] registered a Z score of 1.321. In addition, the Activity entry under setting [5] is given as “no”.
In the case of `CC(C)NC(C)Cc1ccc(I)cc1` (centres unmarked) [Iofetamine hydrochloride], the “Z Score” value is on record as −0.7588. Moreover, the Z score under setting [6] was −0.759.
As to `Cl.NCCC[C@](N)(C(=O)O)C(F)F` (racemic), under setting [10], the “Z Score” value is reported as −0.4244. Besides, the Z score under setting [2] is −0.424. Moreover, the Activity result under setting [3] is on record as “no”.
As to `C[C@]12CCC(=O)C=C1CC[C@@H]1[C@@H]2[C@@H](O)C[C@@]2(C)[C@H]1CC[C@]2(O)C(=O)CO` [Hydrocortisone], the “Z Score” value under setting [8] is on record as −3.049. Moreover, the Z score under setting [6] was −3.049. Moreover, the Activity result under setting [7] is recorded as “yes”.
In the case of `CN1CCCC1c1cccnc1.O=C(O)C(O)C(O)C(=O)O` (single isomer, unassigned; (-)) [(−)-Nicotine hydrogen tartrate salt], the Activity result is reported as “no”, the “Z Score” value stood at 0.04498 and the Z score stood at 0.045.
In the case of `N[C@@H]1CONC1=O` [D-Cycloserine], the “Z Score” value under setting [8] is listed as −1.24. Moreover, under setting [2], the Z score is listed as −1.240. Moreover, under setting [3], the Activity result is recorded as “no”.
Regarding `CCN(CC)CCOC(=O)c1cc(Cl)c(N)cc1OC.Cl` [SDZ-205,557 hydrochloride], the “Z Score” value is listed as −2.681. Moreover, the Z score under setting [6] was −2.681. In addition, the Activity entry under setting [9] is “yes”.
For the compound `CC(N)C(=O)OC(C)(C)Cc1ccc(Cl)cc1` (centres unmarked) [Alaproclate hydrochloride], for the setting “168 h, 3 µM”, the “Z Score” value was −0.1725 and the Z score is given as −0.172. Under setting [5], the Activity entry is recorded as “no”.
In the case of `O=C(O)Cc1ccc(O)c(O)c1` [3,4-Dihydroxyphenylacetic acid], the “Z Score” value is −0.5832. The Z score under setting [2] was −0.583. Moreover, the Activity entry under setting [3] is reported as “no”.
Take `CC(/C=C/c1cccc(Oc2ccc(F)cc2)c1)N(O)C(N)=O` (centres unmarked) [BWB70C]: the “Z Score” value is −0.8932. The Z score under setting [2] is listed as −0.893. Besides, the Activity result under setting [3] is reported as “no”.
With `Cn1cnc2c(NCc3ccccc3)nc(NCCO)nc21` [Olomoucine], under “168 h, 3 µM”, the “Z Score” value was 1.553 and the Z score came to 1.553.
As for `CCCn1c(C)c(C(=O)c2cccc3ccccc23)c2ccccc21` [JWH-015], the “Z Score” value was 0.6223. The Z score under setting [6] is listed as 0.622. Also, the Activity entry under setting [3] is “no”.
With `CN1C[C@H](C(=O)N[C@]2(C)O[C@@]3(O)[C@@H]4CCCN4C(=O)[C@H](Cc4ccccc4)N3C2=O)C[C@@H]2c3cccc4[nH]cc(c34)C[C@H]21` [Dihydroergotamine methanesulfonate], under setting [10], the “Z Score” value is on record as −0.7795. Moreover, the Z score under setting [2] is listed as −0.779. Moreover, the Activity result under setting [3] is on record as “no”.
`C#CCOC(=O)C1=CCCN(C)C1` [Arecaidine propargyl ester hydrobromide]: the “Z Score” value is listed as −9.931. Under setting [6], this compound registered a Z score of −9.931. Also, the Activity entry under setting [9] is reported as “yes”.
Take `CC[N+](CC)(CC)CC(=O)Nc1c(C)cccc1C.[Br-]`: under setting [1], the “Z Score” value is 0.2653. In addition, under setting [6], the Z score was 0.265. Also, the Activity result under setting [3] is listed as “no”.
As to `CCCN1CCc2cc(O)cc3c2[C@H]1Cc1ccc(O)c(O)c1-3`, the Z score under setting [6] is recorded as −2.744. Besides, the Activity result under setting [9] is recorded as “yes”.
In the case of `Cl.N[C@@H](CCl)C(=O)O` [beta-Chloro-L-alanine hydrochloride], the “Z Score” value was −1.39. In addition, the Z score under setting [2] is on record as −1.390. In addition, under setting [3], the Activity result is on record as “no”.
`CS(=O)(=O)Nc1ccc([N+](=O)[O-])cc1Oc1ccccc1` [Nimesulide]: the Activity entry was “yes”. Also, the “Z Score” value under setting [8] is reported as −2.395. Further, the Z score under setting [6] is on record as −2.395.
With `COC(=O)[C@@H](N)Cc1ccc(O)c(O)c1.Cl` [L-3,4-Dihydroxyphenylalanine methyl ester hydrochloride], under setting [1], the “Z Score” value was found to be 0.2769. Also, the Z score under setting [2] came out at 0.277. Further, the Activity entry under setting [3] was “no”.
In the case of `CC1(C)CCC=[N+]1[O-]` [5,5-Dimethyl-1-pyrroline-N-oxide], for the setting “168 h, 3 µM”, the “Z Score” value was −1.666 and the Z score is −1.666. Under setting [3], the Activity result is “no”.
Take `O=[N+]([O-])c1cccc2cn[nH]c12` [7-Nitroindazole (34), 7-Nitroindazole, reference compound]: the “Z Score” value is recorded as −1.349. Besides, the Z score under setting [6] was −1.349. The Activity entry under setting [7] was “no”.
Consider `CC(C)NCC(O)COc1ccc(CC(N)=O)cc1` (centres unmarked) [(B1)-Atenolol], for which the “Z Score” value under setting [10] is on record as −0.6583.
On to `CCCCCCCCCCCCCCCCCC(=O)OC(CC(=O)O)C[N+](C)(C)C.[Cl-]` (racemic) [DL-Stearoylcarnitine chloride], for which the “Z Score” value stood at 0.6378. Besides, the Z score under setting [6] was found to be 0.638. The Activity entry under setting [11] is on record as “no”.
For the compound `O=[N+]([O-])c1cc2nc(O)c(O)nc2cc1[N+](=O)[O-]` [DNQX], the “Z Score” value is reported as 0.9307. The Z score under setting [2] amounted to 0.931. Under setting [3], the Activity entry is listed as “no”.
Consider `CC(C)CN(C)c1nc(N)c(C(=O)N=C(N)N)nc1Cl` [5-(N-Methyl-N-isobutyl)amiloride], for which the “Z Score” value (LOPAC library screen at 3 μM, MTT, secondary neurosphere cultures, screened in singlets) turned out to be 1.871. For the same compound, the Z score under setting [4] is listed as 1.871. The Activity entry under setting [5] is recorded as “no”.
`NCCCCNS(=O)(=O)c1ccc2c(Cl)cccc2c1` [N-(4-Aminobutyl)-5-chloro-2-naphthalenesulfonamide] registered a Z score (168 h, 3 µM) of −0.923. For the same compound, the Activity entry under setting [11] was “no”.
For `N=C(N)NC(=O)c1nc(Cl)c(N)nc1N` [Amiloride hydrochloride], under setting [10], the “Z Score” value is −0.7992. Moreover, the Z score under setting [6] was −0.799. The Activity result under setting [9] is “no”.
For `CN[C@@H]1C[C@@H](c2ccc(Cl)c(Cl)c2)c2ccccc21` [Indatraline hydrochloride], the “Z Score” value is −0.7236. For the same compound, the Z score under setting [6] is recorded as −0.724. Further, the Activity entry under setting [3] was “no”.
